Measurements published in US20040235920A1, “Novel use of substituted aminomethyl chromans for the treatment of movement disorders and of adverse effects induced by drugs administered to treat extrapyramidal movement disorders” (priority 2001, published 2004).

Legend:
[1] = system: patients with cervical dystonia (spasmodic torticollis); assay: Double-blind placebo-controlled study in cervical dystonia (TWSTRS); type: in vivo, human; conditions: 2.5 mg to 20 mg b.i.d.
[2] = system: schizophrenic inpatients on long-term antipsychotic treatment; assay: Cross-over add-on study in tardive dyskinesia (AIMS); type: in vivo, human; conditions: up to 20 mg t.i.d., vs placebo period, typical study
Source text: Tardive dyskinesia is a common adverse effect of long-term treatment with neuroleptics. A typical study to investigate the efficacy of the compounds according to the invention in tardive dyskinesia is described in the following. 32 schizophrenic (DSM-III-R) inpatients aged 25-60 years on long-term stable antipsychotic treatment (duration of at least 5 years) entered the study. (−)-(R)-2-{4-[[3,4-dihydro-2H-benzopyran-2-yl)-methyl]amino]butyl}-1,2-benzoisothiazol-3-(2H)-on-1,1-dioxide monohydrochloride or placebo is administered as “add on” to the antipsychotic treatment, which is kept constant during the whole study. The dose of blinded medication is titrated over a period of 3 weeks in a range from I to 20 mg t.i.d. Then the medication is maintained under double-blind conditions for 2 weeks. After a 2-week wash-out period, the test drugs are crossed over. Assessments of tardive dyskinesia by means of the Abnormal Involuntary Movement Scale (AIMS, see above) and of Parkinsonian extrapyramidal side effects (UPDRS, see above) are made pretreatment and posttreatment.

cataleptic rat = assay: Reversal of catalepsy in rats (oral ED50); type: in vivo; conditions: rats; for ED50: Rattus norvegicus, read-out: oral ED50 value (calculated dose to reverse catalepsy by 50%); for oral ED50 value (calculated dose to reverse catalepsy by 50%) / ED50: oral
Description: Extrapyramidal motor side effects in e.g. rodents are measured by the ability of a drug to induce catalepsy. Catalepsy is defined as a state where an animal continues to remain in an unnormal (nonphysiological ‘uncomfortable’) posture for a long time (e.g.: M. E. Stanley and S. D. Glick, Neuropharmacology, 1996; 15: 393-394; C. J. E. Niemegeers and P. Janssen, Life Sci., 1979, […]). For example, if a hindpaw of a rat is placed on an elevated level, e.g. a platform elevated 3 cm above ground level, a normal rat immediately withdraws the hindpaw from the platform to the ground level. A cataleptic rat remains in this unnatural posture even for minutes.

MSA patients = assay: Add-on study in MSA patients (UPDRS); type: in vivo, human; conditions: 1 to 20 mg t.i.d., typical study
Description: The study design is similar to that described above for Parkinson's disease. (−)-(R)-2-{4-[[3,4-dihydro-2H-benzopyran-2-yl)-methyl]amino]butyl}-1,2-benzoisothiazol-3-(2H)-on-1,1-dioxide monohydrochloride or placebo is titrated as “add on” to the conventional treatment (dose range 1 to 20 mg t.i.d.). After a double-bllind dose-finding phase of 3 weeks during which the individual dose is identified for each patient on the basis of tolerability and efficacy, the dose is maintained unchanged for 3 additional weeks. Before the start of titration and at the end of the treatment period a complete UPDRS assessment is performed in each patient (primary outcome measure).

[3] = system: patients with advanced idiopathic Parkinson's disease complicated by “peak-dose” dyskinesia; assay: Double-blind add-on study in advanced idiopathic Parkinson's disease with peak-dose dyskinesia (diary card); type: in vivo, human; conditions: 2.5 to 10 mg b.i.d., typical study
Source text: A typical study to investigate the efficacy of the compounds according to the invention for adverse effects in Parkinson's disease is described in the following. 40 patients of either sex with advanced idiopathic Parkinson's disease complicated by “peak-dose” dyskinesia participate in a double-blind study. The main inclusion criteria are Hoehn & Yahr stage≧2.5 (lit.: Hoehn H. M. et al, Neurology 1967; 17: 427-442), aged 40-75 years, symptom duration of at least 5 years, and a l-dopa treatment duration of at least 3 years. (−)-(R)-2-{4-[[3,4-dihydro-2H-benzopyran-2-yl)-methyl]amino]butyl}-1,2-benzoisothiazol-3-(2H)-on-1,1-dioxide monohydrochloride or placebo is administered as “add on” to the conventional Parkinson treatment, which is maintained unchanged during the whole study. The dose of blinded medication is titrated over a period of 3 weeks in a range from 2.5 to 10 mg b.i.d. Then the medication is kept constant for 3 weeks. Before the start of titration and at the end of the treatment period the patients fill a diary card in 30 min. inervalls for 48 hours. The diary card differentiates 5 different states: (1) “on” without dyskinesia, (2) “on” with troublesome dyskinesia, (3) “on” with non-troublesome dyskinesia, (4) “off” time, and (5) time asleep (Hauser RA et al., Clin. Neuropharmacol., 2000, 23, 75-81). The primary outcome variable of the protocol is the change in “on” time with troublesome dyskinesia. […] The other parameters are not changed.

[4] = system: advanced Parkinson patients; conditions: cited from earlier work

Question: For Cl.O=C1c2ccccc2S(=O)(=O)N1CCCCNC[C@H]1CCc2ccccc2O1 [(−)-(R)-2-{4-[[3,4-dihydro-2H-benzopyran-2-yl)-methyl]amino]butyl}-1,2-benzoisothiazol-3-(2H)-on-1,1-dioxide monohydrochloride], which TWSTRS scores [1] is on record?
Answer: Its TWSTRS scores is “significant improvement”.

Question: What about the AIMS scores [2] of the same compound?
Answer: The AIMS scores was “significantly lower than during placebo period”.

Question: And the “oral ED50 value (calculated dose to reverse catalepsy by 50%)” value (cataleptic rat)?
Answer: The value was 0,6 mg/kg.

Question: What about the “potency in reversing catalepsy compared to other 5-HT1A agonists” value (cataleptic rat; oral ED50 vs ipsapirone, buspirone, gepirone, tandosirone) of the same compound?
Answer: Its value is 30-100 times.

Question: And the “UPDRS (Parkinson symptoms)” value (MSA patients)?
Answer: The value was “significant clinical improvement of Parkinson symptoms”.

Question: What about the other diary parameters [3] of the same compound?
Answer: Its other diary parameters is “not changed”.

Question: And the ““on” time with troublesome dyskinesia” value [3]?
Answer: The value was “significant reduction”.

Question: And the ““on” time without dyskinesia” value [3]?
Answer: The value was “significantly increase”.

Question: For O=C1CC2(CCCC2)CC(=O)N1CCCCN1CCN(c2ncccn2)CC1 [buspirone], which anti-dyskinetic properties [4] is on record?
Answer: Its anti-dyskinetic properties is “moderate anti-dyskinetic properties”.

Question: What about the ED50 (cataleptic rat) of the same compound?
Answer: Its ED50 is 30 mg/kg.

Question: Which ED50 (cataleptic rat) does the source give for CC1(C)CC(=O)N(CCCCN2CCN(c3ncccn3)CC2)C(=O)C1 [gepirone] here?
Answer: Its ED50 is 16 mg/kg.

Question: Which ED50 (cataleptic rat) does the source give for O=C1c2ccccc2S(=O)(=O)N1CCCCN1CCN(c2ncccn2)CC1 [ipsapirone] here?
Answer: Its ED50 is 23 mg/kg.

Question: Which “oral ED50 value (calculated dose to reverse catalepsy by 50%)” value (cataleptic rat) does the source give for O=C1[C@@H]2[C@H]3CC[C@H](C3)[C@@H]2C(=O)N1CCCCN1CCN(c2ncccn2)CC1 [tandosirone] here?
Answer: The value was 60 mg/kg.
